Source: PubChem BioAssay (NCI)
Values joined by “and” are separate entries in the source; they are usually repeats but may differ in a detail not shown here. Equal values may be shown once.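 Interpolation was linear, between the two tested concentrations surrounding the appropriate level; five concentrations were tested over 48 hours in 96-well plates. GI50 marks 50% less growth. TGI: total growth inhibition.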

What was measured:
Test in all cases: growth of human tumour cells (NCI), 48 h; in the data active = GI50 below about 0.43 µM; inactive = the rest
MDA-MB-435 = test system: MDA-MB-435
A549 NSCLC = test system: A549 NSCLC
HOP-62 NSCLC = test system: HOP-62 NSCLC
MDA-N = test system: MDA-N
OVCAR-3 ovarian = test system: OVCAR-3 ovarian
UACC-257 melanoma = test system: UACC-257 melanoma
MALME-3M melanoma = test system: MALME-3M melanoma
ACHN renal = test system: ACHN renal
RXF 393 renal = test system: RXF 393 renal
HCC-2998 colon = test system: HCC-2998 colon
U251 CNS = test system: U251 CNS
SK-OV-3 ovarian = test system: SK-OV-3 ovarian
786-0 renal = test system: 786-0 renal
SK-MEL-28 melanoma = test system: SK-MEL-28 melanoma
HOP-92 NSCLC = test system: HOP-92 NSCLC
SF-295 CNS = test system: SF-295 CNS
SN12C renal = test system: SN12C renal
SR leukemia = test system: SR leukemia

COc1cc2[nH]c(=O)c3cc(C)cc4c(Cl)nc(c1OC)c2c43
58.1 µM: TGI (RXF 393 renal)
> 100 µM: TGI (MDA-MB-435) | TGI (A549 NSCLC) | TGI (MDA-N) | TGI (OVCAR-3 ovarian) | TGI (UACC-257 melanoma) | TGI (ACHN renal) | TGI (HCC-2998 colon) | TGI (U251 CNS) | TGI (SK-OV-3 ovarian) | TGI (786-0 renal) | TGI (SK-MEL-28 melanoma) | TGI (HOP-92 NSCLC) | TGI (SF-295 CNS)
62 µM: TGI (MALME-3M melanoma)
75.7 µM: TGI (HOP-62 NSCLC)

CC(=O)O[C@H]1C[C@](C)(O)[C@@]23CC([C@@H](OC(=O)C(C)(C)O)[C@@H](OC(C)=O)C2(COC(=O)c2ccccc2)[C@H]1OC(C)=O)C(C)(C)O3 (some centres undefined)
> 100 µM: TGI (MDA-MB-435) | TGI (A549 NSCLC) | TGI (HOP-62 NSCLC) | TGI (MDA-N) | TGI (OVCAR-3 ovarian) | TGI (UACC-257 melanoma) | TGI (MALME-3M melanoma) | TGI (ACHN renal) | TGI (RXF 393 renal) | TGI (HCC-2998 colon) | TGI (U251 CNS) | TGI (SK-OV-3 ovarian) | TGI (786-0 renal) | TGI (SK-MEL-28 melanoma) | TGI (HOP-92 NSCLC) | TGI (SN12C renal) | TGI (SF-295 CNS)

O=C(Nc1ccc(Sc2ccc(N=Nc3c(O)c(S(=O)(=O)O)cc4cc(S(=O)(=O)O)ccc34)cc2)cc1)c1ccc(N=Nc2c(O)c(S(=O)(=O)O)cc3cc(S(=O)(=O)O)ccc23)cc1
53.5 µM: TGI (MALME-3M melanoma)
86.5 µM: TGI (SK-MEL-28 melanoma)
92.4 µM: TGI (HOP-92 NSCLC)
54.9 µM: TGI (OVCAR-3 ovarian)
> 100 µM: TGI (A549 NSCLC) | TGI (HOP-62 NSCLC) | TGI (UACC-257 melanoma) | TGI (ACHN renal) | TGI (HCC-2998 colon) | TGI (U251 CNS) | TGI (SK-OV-3 ovarian) | TGI (786-0 renal) | TGI (SN12C renal) | TGI (SF-295 CNS)
71.7 µM: TGI (RXF 393 renal)
54 µM: TGI (SR leukemia)

COc1cccc([C@@H]2CC(=O)c3cc4c(cc3N2)OCO4)c1
> 100 µM: TGI (MDA-MB-435) | TGI (A549 NSCLC) | TGI (HOP-62 NSCLC) | TGI (MDA-N) | TGI (OVCAR-3 ovarian) | TGI (UACC-257 melanoma) | TGI (ACHN renal) | TGI (RXF 393 renal) | TGI (HCC-2998 colon) | TGI (U251 CNS) | TGI (SK-OV-3 ovarian) | TGI (786-0 renal) | TGI (SK-MEL-28 melanoma) | TGI (HOP-92 NSCLC) | TGI (SN12C renal) | TGI (SF-295 CNS)

Cn1c(COC(=O)NC2CCCCC2)c(COC(=O)NC2CCCCC2)c2ccc3cc(C=O)ccc3c21
87.5 µM: TGI (U251 CNS)
> 100 µM: TGI (MDA-MB-435) | TGI (A549 NSCLC) | TGI (MDA-N) | TGI (OVCAR-3 ovarian) | TGI (UACC-257 melanoma) | TGI (MALME-3M melanoma) | TGI (ACHN renal) | TGI (RXF 393 renal) | TGI (HCC-2998 colon) | TGI (SK-OV-3 ovarian) | TGI (786-0 renal) | TGI (HOP-92 NSCLC) | TGI (SN12C renal) | TGI (SF-295 CNS)

CC1CCOc2ccc(cc2)C=Nc2ccc(cc2)-c2ccc(cc2)N=Cc2ccc(cc2)OCC1 (centres undefined)
> 100 µM: TGI (MDA-MB-435) | TGI (SR leukemia) | TGI (A549 NSCLC) | TGI (MDA-N) | TGI (OVCAR-3 ovarian) | TGI (UACC-257 melanoma) | TGI (ACHN renal) | TGI (HCC-2998 colon) | TGI (U251 CNS) | TGI (SK-OV-3 ovarian) | TGI (786-0 renal) | TGI (SK-MEL-28 melanoma) | TGI (HOP-92 NSCLC) | TGI (SN12C renal) | TGI (SF-295 CNS)

COc1cc([C@@H]2c3cc4c(cc3[C@@H](c3c(O)cc(O)c5c3O[C@H](c3ccc(O)c(O)c3)[C@H](OC(=O)c3cc(O)c(O)c(O)c3)C5)[C@H]3COC(=O)[C@H]23)OCO4)cc(OC)c1O
92.3 µM: TGI (HCC-2998 colon)
99.2 µM: TGI (A549 NSCLC)
57.3 µM: TGI (MDA-MB-435)
> 100 µM: TGI (HOP-62 NSCLC) | TGI (MDA-N) | TGI (OVCAR-3 ovarian) | TGI (UACC-257 melanoma) | TGI (MALME-3M melanoma) | TGI (ACHN renal) | TGI (RXF 393 renal) | TGI (U251 CNS) | TGI (SK-OV-3 ovarian) | TGI (786-0 renal) | TGI (SK-MEL-28 melanoma) | TGI (HOP-92 NSCLC) | TGI (SN12C renal) | TGI (SF-295 CNS)

N#CCc1nc2cc(C(F)(F)F)ccc2s1
48.1 µM: TGI (HOP-92 NSCLC)
> 100 µM: TGI (MDA-MB-435) | TGI (HOP-62 NSCLC) | TGI (MDA-N) | TGI (UACC-257 melanoma) | TGI (MALME-3M melanoma) | TGI (ACHN renal) | TGI (RXF 393 renal) | TGI (U251 CNS) | TGI (SK-OV-3 ovarian) | TGI (786-0 renal) | TGI (SN12C renal) | TGI (SF-295 CNS)
75.8 µM: TGI (OVCAR-3 ovarian)

CC(C)(C)OC(=O)n1c(Cl)c(C=O)c2ccccc21
40.8 µM: TGI (OVCAR-3 ovarian)
46.6 µM: TGI (786-0 renal)
54.3 µM: TGI (SN12C renal)
56.8 µM: TGI (HOP-92 NSCLC)
> 100 µM: TGI (MDA-MB-435) | TGI (SR leukemia) | TGI (A549 NSCLC) | TGI (MDA-N) | TGI (U251 CNS) | TGI (SK-OV-3 ovarian) | TGI (SK-MEL-28 melanoma) | TGI (SF-295 CNS)
67.3 µM: TGI (UACC-257 melanoma)
52.9 µM: TGI (ACHN renal)
43 µM: TGI (HOP-62 NSCLC)
39.9 µM: TGI (MALME-3M melanoma)

CCOc1ccc(NCC2CC/C(=C\c3ccc(Cl)cc3)C2=O)cc1 (centres undefined)
> 87.5 µM: TGI (MALME-3M melanoma)
> 64.6 µM: TGI (RXF 393 renal)
> 57.3 µM: TGI (U251 CNS)
> 100 µM: TGI (A549 NSCLC) | TGI (HOP-62 NSCLC) | TGI (SK-OV-3 ovarian) | TGI (SK-MEL-28 melanoma) | TGI (SF-295 CNS)
> 50.4 µM: TGI (SR leukemia)
25.8 µM: TGI (786-0 renal)
> 56.1 µM: TGI (UACC-257 melanoma)
41.6 µM: TGI (HOP-92 NSCLC)
> 51.9 µM: TGI (OVCAR-3 ovarian)
> 60.3 µM: TGI (ACHN renal) | TGI (SN12C renal)
18 µM: TGI (HCC-2998 colon)

OCC1OC(c2ccccc2)CC1O (centres undefined)
> 100 µM: TGI (MDA-MB-435) | TGI (SR leukemia) | TGI (A549 NSCLC) | TGI (OVCAR-3 ovarian) | TGI (UACC-257 melanoma) | TGI (ACHN renal) | TGI (RXF 393 renal) | TGI (U251 CNS) | TGI (SK-OV-3 ovarian) | TGI (786-0 renal) | TGI (SK-MEL-28 melanoma) | TGI (SN12C renal) | TGI (SF-295 CNS)

Cc1ccc2c(=O)cc(Cc3csc4ccccc34)[nH]c2n1
> 100 µM: TGI (MDA-MB-435) | TGI (A549 NSCLC) | TGI (HOP-62 NSCLC) | TGI (MDA-N) | TGI (OVCAR-3 ovarian) | TGI (UACC-257 melanoma) | TGI (RXF 393 renal) | TGI (U251 CNS) | TGI (SK-OV-3 ovarian) | TGI (786-0 renal) | TGI (SK-MEL-28 melanoma) | TGI (SN12C renal)
62.1 µM: TGI (MALME-3M melanoma)
93.8 µM: TGI (SF-295 CNS)

C[N+]1([O-])[C@H]2CC(OC(=O)[C@H](CO)c3ccccc3)C[C@H]1[C@H]1O[C@H]12 (some centres undefined)
> 100 µM: TGI (MDA-MB-435) | TGI (SR leukemia) | TGI (A549 NSCLC) | TGI (HOP-62 NSCLC) | TGI (MDA-N) | TGI (OVCAR-3 ovarian) | TGI (UACC-257 melanoma) | TGI (MALME-3M melanoma) | TGI (ACHN renal) | TGI (RXF 393 renal) | TGI (U251 CNS) | TGI (SK-OV-3 ovarian) | TGI (786-0 renal) | TGI (SK-MEL-28 melanoma) | TGI (SN12C renal) | TGI (SF-295 CNS)

Cc1c2oc3c(C)cc(F)c(C(=O)NC4C(=O)NC(C(C)C)C(=O)N5CCCC5C(=O)N(C)CC(=O)N(C)C(C(C)C)C(=O)OC4C)c3nc-2c(C(=O)NC2C(=O)NC(C(C)C)C(=O)N3CCCC3C(=O)N(C)CC(=O)N(C)C(C(C)C)C(=O)OC2C)c(N)c1=O (centres undefined)
2.32 µM and 4.16 µM: TGI (SF-295 CNS)
1.31 µM and 0.988 µM: TGI (SK-MEL-28 melanoma)
0.887 µM: TGI (HOP-92 NSCLC)
> 100 µM: TGI (SK-OV-3 ovarian) | TGI (SN12C renal)
25.9 µM: TGI (U251 CNS)
1.32 µM and 1.12 µM: TGI (MDA-N)
active: GI50 (OVCAR-3 ovarian) 0.171 µM | GI50 (UACC-257 melanoma) 0.0732 µM
1.42 µM and 1.19 µM: TGI (MDA-MB-435)
78.5 µM: TGI (786-0 renal)
0.391 µM: TGI (RXF 393 renal)
32.5 µM: TGI (ACHN renal)
